# How the values were obtained:
# [1] = target: human LTA4 hydrolase (Homo sapiens (Human), UniProt P09960); assay: LTA4H Enzyme assay (peptidase, Arg-AMC cleavage); format: biochemical; details: LTA4H Enzyme 1 nM, Arg-AMC substrate 50 μM, room temperature 1 h, fluorescence
# Description: The compounds of the invention are assessed for the ability to interact with human LTA4 hydrolase in an enzymatic assay that measures the ability of the enzyme to cleave the peptide bond of arginyl-aminomethylcoumarin (Arg-AMC). LTA4H Enzyme (1 nM final), Arg-AMC substrate (50 μM final), and compound are combined in a reaction buffer (50 mM Tris-HCl (pH 7.5), 100 mM KCl, 0.5% bovine serum albumin) at room temperature for 1 h. The formation of product is assessed by measuring the fluorescence of aminomethylcoumarin product (excitation wavelength 380 nm/emission wavelength 460 nm).
# [2] = system: synthesis of LTB4 in human whole blood; assay: LTB4 production inhibition assay in human whole blood (HWB); format: cell-based; details: heparinized human whole blood, 15 min at 37° C., Calcimycin 20 μM 30 min, plasma LTB4 by HTRF
# Description: The compounds of the invention are additionally tested in a human whole blood (HWB) assay to determine their ability to inhibit the synthesis of LTB4 in a cellular system. Compounds are combined with heparinized human whole blood and incubated for 15 minutes at 37° C. Calcimycin (20 μM final, prepared in phosphate-buffered saline, pH 7.4) is then added and the mixture is incubated for another 30 minutes at 37° C. The samples are centrifuged for 5 min at low speed (1500×g) and the plasma layer is removed. Plasma LTB4 concentrations are then measured using an antibody-based homogenous time-resolved fluorescence method (CisBio, Bedford, Mass.).
# Sequence of human LTA4 hydrolase (P09960 whole entry): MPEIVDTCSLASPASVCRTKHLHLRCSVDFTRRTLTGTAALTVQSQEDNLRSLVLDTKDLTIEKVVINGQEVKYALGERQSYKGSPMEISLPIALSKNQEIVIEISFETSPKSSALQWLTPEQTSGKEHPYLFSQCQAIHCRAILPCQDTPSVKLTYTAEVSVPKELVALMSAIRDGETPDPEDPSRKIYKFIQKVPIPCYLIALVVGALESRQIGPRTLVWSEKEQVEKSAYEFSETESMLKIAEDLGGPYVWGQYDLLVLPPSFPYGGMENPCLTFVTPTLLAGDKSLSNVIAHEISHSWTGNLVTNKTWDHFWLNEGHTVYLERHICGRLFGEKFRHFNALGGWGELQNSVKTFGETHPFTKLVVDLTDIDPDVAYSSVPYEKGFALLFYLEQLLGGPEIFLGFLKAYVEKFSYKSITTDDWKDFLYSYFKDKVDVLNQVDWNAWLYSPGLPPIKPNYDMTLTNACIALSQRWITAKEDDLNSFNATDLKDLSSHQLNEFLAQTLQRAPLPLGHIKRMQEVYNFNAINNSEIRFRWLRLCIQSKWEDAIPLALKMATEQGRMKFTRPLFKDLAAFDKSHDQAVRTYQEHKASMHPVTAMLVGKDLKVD
IC50 [1] [nM],IC50 [2] [nM],SMILES
2.6,420,"CCOCC(=O)N1CCN(Cc2ccc3cc(Oc4ccc(-c5ccn[nH]5)cn4)ccc3n2)CC1 [Example 124, 2-Ethoxy-1-(4-{6-[5-(2H-pyrazol-3-yl)-pyridin-2-yloxy]-quinolin-2-ylmethyl}-piperazin-1-yl)-ethanone]"
1.3,310,"CC(C)(O)C(=O)N1CCN(CCc2coc3cc(Oc4ccc(-c5ccn[nH]5)cn4)ccc23)CC1 [Example 85, 2-Hydroxy-2-methyl-1-[4-(2-{6-[5-(2H-pyrazol-3-yl)-pyridin-2-yloxy]-benzofuran-3-yl}-ethyl)-piperazin-1-yl]-propan-1-one]"
2.7,400,"O=C([C@@H]1CCOC1)N1CCN(Cc2ccc3cc(Oc4ccc(-c5ccn[nH]5)cn4)ccc3n2)CC1 [Example 141, (4-{6-[5-(2H-Pyrazol-3-yl)-pyridin-2-yloxy]-quinolin-2-ylmethyl}-piperazin-1-yl)-(R)-tetrahydro-furan-3-yl-methanone]"
1.5,640,"O=C(N1CCN(CCC2COc3cc(Oc4ccc(-c5ccn[nH]5)cn4)ccc32)CC1)C1(O)CC1 (centres unmarked) [Example 90, (1-Hydroxy-cyclopropyl)-[4-(2-{6-[5-(2H-pyrazol-3-yl)-pyridin-2-yloxy]-2,3-dihydro-benzofuran-3-yl}-ethyl)-piperazin-1-yl]-methanone]"
0.7,160,"CN(CCO)Cc1ccc2cc(Oc3ccc(-c4ccn[nH]4)cn3)ccc2c1 [Example 16, 2-(Methyl-{6-[5-(2H-pyrazol-3-yl)-pyridin-2-yloxy]-naphthalen-2-ylmethyl}-amino)-ethanol]"
1.7,290,"O=C1[C@@H](O)CCN1C1CCN(CCC2COc3cc(Oc4ccc(-c5ccn[nH]5)cn4)ccc32)CC1 (stereo partly drawn) [Example 70, (S)-3-Hydroxy-1-[1-(2-{6-[5-(2H-pyrazol-3-yl)-pyridin-2-yloxy]-2,3-dihydro-benzofuran-3-yl}-ethyl)-piperidin-4-yl]-pyrrolidin-2-one]"
0.88,170,"COCC(=O)N1CCN(CCc2coc3cc(Oc4ccc(-c5ccn[nH]5)cn4)ccc23)CC1 [Example 77, 2-Methoxy-1-[4-(2-{6-[5-(2H-pyrazol-3-yl)-pyridin-2-yloxy]-benzofuran-3-yl}-ethyl)-piperazin-1-yl]-ethanone]"
3.9,570,"CC(C)(O)CC(=O)N1CCN(Cc2ccc3cc(Oc4ccc(-c5ccn[nH]5)cn4)ccc3n2)CC1 [Example 122, 3-Hydroxy-3-methyl-1-(4-{6-[5-(2H-pyrazol-3-yl)-pyridin-2-yloxy]-quinolin-2-ylmethyl}-piperazin-1-yl)-butan-1-one]"
5.4,610,"CC(C)(CO)C(=O)N1CCN(Cc2ccc3cc(Oc4ccc(-c5ccn[nH]5)cn4)ccc3n2)CC1 [Example 135, 3-Hydroxy-2,2-dimethyl-1-(4-{6-[5-(2H-pyrazol-3-yl)-pyridin-2-yloxy]-quinolin-2-ylmethyl}-piperazin-1-yl)-propan-1-one]"
0.92,170,"CN(Cc1ccc2cc(Oc3ccc(-c4ccn[nH]4)cn3)ccc2n1)[C@@H]1CCN(C(=O)CO)C1 [Example 100, 2-Hydroxy-1-[(R)-3-(methyl-{6-[5-(2H-pyrazol-3-yl)-pyridin-2-yloxy]-quinolin-2-ylmethyl}-amino)-pyrrolidin-1-yl]-ethanone]"
12,–,"N#CC1(C(=O)N2CCN(Cc3ccc4cc(Oc5ccc(-c6ccn[nH]6)cn5)ccc4n3)CC2)CCCC1 [Example 147, 1-(4-{6-[5-(2H-Pyrazol-3-yl)-pyridin-2-yloxy]-quinolin-2-ylmethyl}-piperazine-1-carbonyl)-cyclopentanecarbonitrile]"

SMILES,IC50 [1] [nM],IC50 [2] [nM]
"O=C(N1CC2CCC(C1)N2Cc1ccc2cc(Oc3ccc(-c4ccn[nH]4)cn3)ccc2n1)C1(O)CC1 [Example 56, (1-Hydroxy-cyclopropyl)-(8-{6-[5-(2H-pyrazol-3-yl)-pyridin-2-yloxy]-quinolin-2-ylmethyl}-3,8-diaza-bicyclo[3.2.1]oct-3-yl)-methanone]",0.53,150
